Data on three compounds can be found in patent US12358902B2, “5-(2,5-bis(4-chloro-2-isopropylphenyl)thiophen-3-yl)-1H-tetrazole for the topical treatment of bacterial infections” (DENOVAMED INC., priority 2017, dated 2025).

The subject of assay [1] is S. aureus MRSA MISA MU3 NRS2. The experiment in a line: broth microdilution MIC (CLSI). The note with it: Staphylococcus aureus, read-out: Antibacterial activity (MIC). The format is cell-based. How it is done:
(§1) Using a broth microdilution assay according to Clinical Laboratory Standards Institute (CSLI) guidelines, we tested 5-(2,5-bis(4-chloro-2-isopropylphenyl)thiophen-3-yl)-1H-tetrazole (“Test Article” in below table) to establish MICs against a broad range of MDR bacteria and noted substantive activity versus methicillin-resistant Staphylococcus aureus (MRSA), vancomycin-resistant Enterococcus (VRE) and Streptococcus spp. Antimicrobial susceptibility testing was performed by a microdilution broth assay according to CLSI guidelines. The inoculum was prepared from stationary-phase cultures diluted in water. Microtiter plate wells received aliquots of 100 μL of the compound diluted in Mueller-Hinton II cation adjusted media. The final concentration of compound typically ranged from 250 to 0.125 μg/ml in serial two-fold dilutions. In addition to the test compound, growth and sterility controls were included, along with DMSO vehicle control rows. The microtiter plates were inoculated with 5×10^5 bacteria and incubated overnight at 35° C. in a humidified atmosphere.
In general terms: Dilution methods test growth across graded concentrations, often in twofold steps.

Assay [2] relates to S. aureus MRSA USA200 epidemic strain. The experiment in a line: broth microdilution MIC (CLSI). The note with it: Staphylococcus aureus, read-out: Antibacterial activity (MIC). Format: cell-based. As for the experimental part:
as §1

Assay [3] concerns S. aureus MRSA USA100 epidemic strain. The assay is described as follows: broth microdilution MIC (CLSI). Format: cell-based. The note with it: Staphylococcus aureus, read-out: Antibacterial activity (MIC). As for the experimental part:
as §1

Assay [4] relates to S. aureus MRSA clinical isolate multi resistant. The assay is described as follows: broth microdilution MIC (CLSI). The note with it: Staphylococcus aureus, MRSA, read-out: Antibacterial activity (MIC). The format is cell-based. As for the experimental part: as §1
Assay [5] deals with S. aureus MRSA clinical isolate penicillin and erythromycin resistant. The experiment in a line: broth microdilution MIC (CLSI). The format is cell-based. The note with it: Staphylococcus aureus, MRSA, read-out: Antibacterial activity (MIC). As for the experimental part: as §1
For assay [6], the system named is S. aureus MRSA clinical isolate ciprofloxacin resistant. The assay is described as follows: broth microdilution MIC (CLSI). The note with it: Staphylococcus aureus, MRSA, read-out: Antibacterial activity (MIC). The format is cell-based. As for the experimental part: as §1
A further assay relates to S. aureus MRSA ATCC43300. The assay is described as follows: broth microdilution MIC (CLSI). The format is cell-based. The note with it: Staphylococcus aureus, read-out: Antibacterial activity (MIC). How it is done: as §1
Assay [7] relates to S. aureus MRSA USA300 epidemic strain. The assay is described as follows: broth microdilution MIC (CLSI). The format is cell-based. The note with it: Staphylococcus aureus, read-out: Antibacterial activity (MIC). As for the experimental part:
as §1

Assay [8] concerns S. aureus MRSA MISA MU50 NRS1. The assay is described as follows: broth microdilution MIC (CLSI). The format is cell-based. The note with it: Staphylococcus aureus, read-out: Antibacterial activity (MIC). How it is done:
as §1

Assay [9] relates to S. aureus MRSA clinical isolate from Manchester. The assay is described as follows: broth microdilution MIC (CLSI). Format: cell-based. The note with it: Staphylococcus aureus, MRSA, read-out: Antibacterial activity (MIC). How it is done: as §1
In the next assay the test system is Clostridium spp. The experiment in a line: activity against Clostridium spp. The format is cell-based.
Another assay relates to MRSA (ATCC #33591). The assay is described as follows: rabbit ischemic wound model. The format is in vivo, New Zealand white rabbits. The note with it: topical daily to day 14; p<0.001 vs control, p<0.03 vs mupirocin. As for the experimental part:
5-(2,5-bis(4-chloro-2-isopropylphenyl)thiophen-3-yl)-1H-tetrazole was tested for its efficacy against infection in the rabbit ischemic wound model, the gold standard animal model mimicking human DUI. In this model, the ear is made ischemic by division of central and rostral nutrient arteries of New Zealand white rabbits. New Zealand White rabbits were employed for this study and their husbandry and experimental manipulation adhered to standard Guides for the Care and Use of Laboratory Animals (2001). An incision was made to the level of bare cartilage at the base of the ear and followed by injection intradermally with epinephrine to obtain vasoconstriction and aid with skin detachment. Skin is separated from the underlying perichondrium and removed with a 6.0 mm aortic biopsy punch. Food and water were given ad libidum and animals were acclimatized for 7 days with photoperiods of alternating 12 h light and dark provided, along with analgesic (BUPRENEX™ (buprenorphine) 0.02 mg/kg sc) and anaesthesia (isoflurane (0.5-5% with oxygen carrier 0.5-2 L/min) during procedures.
An ischemia wound healing model was conducted surgically. Each wound was inoculated with 50 μl of 2×10^7 CFU/ml MRSA (ATCC #33591) and dressed. After one day, wounds were treated with either 50 μl control cream containing vehicle (N=4), 50 μl containing mupirocin (N=4), or 50 μl cream containing 5-(2,5-bis(4-chloro-2-isopropylphenyl)thiophen-3-yl)-1H-tetrazole (N=8) daily. Clinical observations were performed on days 1, 3, 5, 7, 10 and 14. Wounds were assessed and observations recorded using the Draize scoring system. Digital photographs of each wound were obtained and documented.
On day 14 post-wounding, under anesthesia, the animals were euthanized with an intravenous injection of BEUTHANASIA-D™ ([…] and phenytoin sodium) at a dosage of 150 mg/kg of body weight. Specimens including the entire wound, along with approximately 2-3 mm of the normal unwounded skin margins were harvested. Each ear wound specimen was sectioned into halves. For one half of the wound, the wound was placed into a container with 10% neutral buffered formalin and processed for routine histological evaluation. Wound organization was scored for four parameters on a scale of 0-4 at the wound site for inflammation, granulation, angiogenesis, and epithelialization. Wounds were characterized in a blinded manner by a board certified member of the College of American Pathologists. The other half of the wound was weighed (mg) in a sterile Petri dish, then placed in a sterile disposable tissue grinder and homogenized for quantitative microbiology. The tube containing the ground tissue sample was filled with 5 ml 0.85% sterile saline. Five 1:10 serial dilutions were then prepared with 0.5 ml aliquots and 4.5 ml of sterile saline per aliquot. Subsequently, 0.1 ml of the homogenate and each dilution was drop plated on trypticase soy agar and placed in an incubator at 37° C. The number of viable organisms per wound was recorded as cfu/gram of tissue.

Converted amounts (≈) assume the structure as drawn.

Usually MIC stands for the smallest concentration in the dilution series that meets the test's criterion for growth inhibition. With `CN[C@H](CC(C)C)C(=O)N[C@H]1C(=O)N[C@@H](CC(N)=O)C(=O)N[C@H]2C(=O)N[C@H]3C(=O)N[C@H](C(=O)N[C@H](C(=O)O)c4cc(O)cc(O)c4-c4cc3ccc4O)[C@H](O)c3ccc(c(Cl)c3)Oc3cc2cc(c3O[C@@H]2O[C@H](CO)[C@@H](O)[C@H](O)[C@H]2O[C@H]2C[C@](C)(N)[C@H](O)[C@H](C)O2)Oc2ccc(cc2Cl)[C@H]1O` [vancomycin, reference compound], the MIC in assay [1] is 1 µg/mL (≈ 0.69 µM); in [2] it was 0.5 µg/mL (≈ 0.345 µM); in [3] it was 1 µg/mL (≈ 0.69 µM); in [4] it was 0.5 µg/mL (≈ 0.345 µM); in assay [5] it was 1 µg/mL (≈ 0.69 µM); in assay [6] it was 0.5 µg/mL (≈ 0.345 µM). Moreover, the MIC with S. aureus MRSA ATCC43300 turned out to be 0.5 µg/mL (≈ 0.345 µM); in assay [7], 1 µg/mL (≈ 0.69 µM); in assay [8] it was 4 µg/mL (≈ 2.76 µM); in assay [9], 0.5 µg/mL (≈ 0.345 µM).

Regarding `CC(C)c1cc(Cl)ccc1-c1cc(-c2nnn[nH]2)sc1-c1ccc(Cl)cc1C(C)C` [5-(4,5-bis(4-chloro-2-isopropylphenyl)thiophen-2-yl)-1H-tetrazole, reference compound], the outcome with Clostridium spp. was inactive.

On to `C/C(=C\C(=O)OCCCCCCCCC(=O)O)C[C@@H]1OC[C@H](C[C@@H]2O[C@H]2[C@@H](C)[C@H](C)O)[C@@H](O)[C@H]1O` [mupirocin, reference compound], for which the “percent wound contraction over time (FIG. 1)” value in the assay on MRSA (ATCC #33591) is “control group had less wound contraction than either treated group”.
